Results as given in publication PMC10704437, “Sterol-activated amyloid beta fibril formation” (The Journal of Biological Chemistry, 2023).

Target: T1, Aβ42 (Homo sapiens, UniProt P05067)
T1 construct: Small red spheres mark the Aβ42 peptide C-terminal residue, A42; purchased Sigma-Aldrich Corp
Experiment: Aβ42 fibril formation versus CS percentage (ThT)
Format: biochemical
Settings: [CS]+[CH] 20 μM, Aβ42 1.0 μM
Experimental: To experimentally assess the potential impact of CS on fibril formation in vivo, fibril synthesis was monitored over a series of CS/CH ratios that span the physiological range.
Figure 8 Aβ42fibril formation versus CS percentage. Fibril formation was detected via binding-induced changes in ThT fluorescence (λex = 450 nm, λem = 482 nm). Reaction conditions: Aβ42 (1.0 μM), CS percent (as indicated), [CS] + [CH] (20 μM), ThT (30 μM), DMSO (0.5 % v/v), K2PO4 (50 mM), pH 7.4, 25 °C ± 2 deg. C. Progress curves were performed in triplicate and averaged data are shown. Lines passing through the data represent the behavior predicted by the NEF model using the Table 2 rate constants.

T1 sequence (P05067 672-713 limits assumed): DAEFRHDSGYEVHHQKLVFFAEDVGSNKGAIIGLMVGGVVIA

With `CC(C)CCC[C@@H](C)[C@H]1CC[C@H]2[C@@H]3CC=C4C[C@@H](OS(=O)(=O)O)CC[C@]4(C)[C@H]3CC[C@]12C` [CS, cholesterol 3-sulfate] the fibril formation lag-time (0.1% CS) was “shortens by several hours”, the fibril formation lag-time (1% CS) was “nearly halved” and the fibril formation lag-time (10% CS) was “approaches that of pure CS”.
